Experimental data published in paper PMC5218480 (PLoS ONE, 2017).

System: MV-4-11 cells
Assay: Gene expression microarray analysis (Affymetrix PrimeView) and GSEA
Assay type: cell-based, human
Parameters: RFU PODN (11730768_x_at) / Fold change /veh PODN (11730768_x_at) / RFU LINC00158 (11744669_a_at) / Fold change /veh LINC00158 (11744669_a_at) / RFU DUSP10 (11751237_a_at) / Fold change /veh DUSP10 (11751237_a_at) / RFU ID3 (11757404_x_at) / Fold change /veh ID3 (11757404_x_at) / RFU PLEKHG5 (11737974_s_at) / Fold change /veh PLEKHG5 (11737974_s_at) / RFU LRRC4B (11730491_at) / Fold change /veh LRRC4B (11730491_at) / RFU GIMAP4 (11747438_a_at) / Fold change /veh GIMAP4 (11747438_a_at) / RFU KRT8 (11758183_x_at) / Fold change /veh KRT8 (11758183_x_at) / RFU CNN1 (11734310_a_at) / Fold change /veh CNN1 (11734310_a_at) / RFU VPS37D (11726825_at) / Fold change /veh VPS37D (11726825_at) / RFU C10orf10 (11716522_x_at) / Fold change /veh C10orf10 (11716522_x_at) / RFU KIR2DL2 /// KIR2DL4 /// KIR2DL5A /// KIR2DL5B /// KIR2DS1 /// KIR2DS2 /// KIR2DS3 /// KIR2DS4 /// KIR3DL3 /// KIR3DL3 /// KIR3DS1 (11738374_at) / Fold change /veh KIR2DL2 /// KIR2DL4 /// KIR2DL5A /// KIR2DL5B /// KIR2DS1 /// KIR2DS2 /// KIR2DS3 /// KIR2DS4 /// KIR3DL3 /// KIR3DL3 /// KIR3DS1 (11738374_at) / RFU C1QL1 (11718748_at) / Fold change /veh C1QL1 (11718748_at) / RFU TMPRSS4 (11747572_a_at) / Fold change /veh TMPRSS4 (11747572_a_at) / RFU HAMP (11756126_x_at) / Fold change /veh HAMP (11756126_x_at) / RFU RNFT2 (11725882_a_at) / Fold change /veh RNFT2 (11725882_a_at) / RFU NR4A2 (11747474_a_at) / Fold change /veh NR4A2 (11747474_a_at) / RFU ABCC12 (11746883_a_at) / Fold change /veh ABCC12 (11746883_a_at) / RFU TMEM136 (11760407_x_at) / Fold change /veh TMEM136 (11760407_x_at) / RFU CLDN22 /// WWC2 (11732394_at) / Fold change /veh CLDN22 /// WWC2 (11732394_at) / RFU HLA-DPB1 (11760878_x_at) / Fold change /veh HLA-DPB1 (11760878_x_at) / RFU SPINT1 (11716480_a_at) / Fold change /veh SPINT1 (11716480_a_at) / RFU GAP43 (11754022_s_at) / Fold change /veh GAP43 (11754022_s_at) / RFU A4GNT (11735810_at) / Fold change /veh A4GNT (11735810_at) / RFU PRB3 (11715151_x_at) / Fold change /veh PRB3 (11715151_x_at) / RFU TUBB4B (11761932_at) / Fold change /veh TUBB4B (11761932_at) / RFU CAPN14 (11732068_a_at) / Fold change /veh CAPN14 (11732068_a_at) / RFU TMCC2 (11721928_a_at) / Fold change /veh TMCC2 (11721928_a_at) / RFU IRGQ (11745062_a_at) / Fold change /veh IRGQ (11745062_a_at) / RFU FAM174B (11720279_a_at) / Fold change /veh FAM174B (11720279_a_at) / RFU TMPRSS4 (11748680_a_at) / Fold change /veh TMPRSS4 (11748680_a_at) / RFU FAM212B (11763350_a_at) / Fold change /veh FAM212B (11763350_a_at) / RFU PLEKHG5 (11743358_a_at) / Fold change /veh PLEKHG5 (11743358_a_at) / RFU ZSCAN30 (11745921_a_at) / Fold change /veh ZSCAN30 (11745921_a_at) / RFU CMKLR1 (11741424_a_at) / Fold change /veh CMKLR1 (11741424_a_at) / RFU LOC101060620 /// MAPK8IP1 (11723275_at) / Fold change /veh LOC101060620 /// MAPK8IP1 (11723275_at) / RFU SPTSSB (11747773_x_at) / Fold change /veh SPTSSB (11747773_x_at) / RFU PRSS12 (11739890_at) / Fold change /veh PRSS12 (11739890_at) / RFU BIN1 (11741810_x_at) / Fold change /veh BIN1 (11741810_x_at) / RFU WNT11 (11732464_a_at) / Fold change /veh WNT11 (11732464_a_at) / RFU C10orf10 (11716521_a_at) / Fold change /veh C10orf10 (11716521_a_at) / RFU C5orf56 (11738089_at) / Fold change /veh C5orf56 (11738089_at) / RFU CYB561 (11721691_x_at) / Fold change /veh CYB561 (11721691_x_at) / RFU ANKRD19P (11752326_a_at) / Fold change /veh ANKRD19P (11752326_a_at) / RFU OR2T12 /// OR2T33 /// OR2T8 (11738714_s_at) / Fold change /veh OR2T12 /// OR2T33 /// OR2T8 (11738714_s_at) / RFU VCAN (11748164_a_at) / Fold change /veh VCAN (11748164_a_at) / RFU JSRP1 (11732532_at) / Fold change /veh JSRP1 (11732532_at) / RFU KRTAP10-11 (11738290_x_at) / Fold change /veh KRTAP10-11 (11738290_x_at) / RFU MYO3A (11730013_a_at) / Fold change /veh MYO3A (11730013_a_at) / RFU EBF3 (11725865_a_at) / Fold change /veh EBF3 (11725865_a_at) / RFU CAMK2N1 (11719241_x_at) / Fold change /veh CAMK2N1 (11719241_x_at) / RFU C5orf56 (11738088_a_at) / Fold change /veh C5orf56 (11738088_a_at) / RFU OLFML3 (11715873_a_at) / Fold change /veh OLFML3 (11715873_a_at) / RFU LOC100653217 /// NTM (11731650_a_at) / Fold change /veh LOC100653217 /// NTM (11731650_a_at) / RFU MAPK11 (11762145_a_at) / Fold change /veh MAPK11 (11762145_a_at) / RFU FIZ1 (11724087_x_at) / Fold change /veh FIZ1 (11724087_x_at) / RFU OASL (11726364_x_at) / Fold change /veh OASL (11726364_x_at) / RFU SOX15 (11748057_x_at) / Fold change /veh SOX15 (11748057_x_at) / RFU CD79A (11719716_a_at) / Fold change /veh CD79A (11719716_a_at) / RFU HIST1H1D (11736915_at) / Fold change /veh HIST1H1D (11736915_at) / RFU CASKIN2 (11723855_a_at) / Fold change /veh CASKIN2 (11723855_a_at) / RFU LOC730098 (11760151_x_at) / Fold change /veh LOC730098 (11760151_x_at) / RFU OR4N2 (11742367_at) / Fold change /veh OR4N2 (11742367_at) / RFU PRRT2 (11749266_a_at) / Fold change /veh PRRT2 (11749266_a_at) / RFU SNX32 (11753110_a_at) / Fold change /veh SNX32 (11753110_a_at) / RFU CDHR5 (11726645_a_at) / Fold change /veh CDHR5 (11726645_a_at) / RFU RCAN1 (11760418_a_at) / Fold change /veh RCAN1 (11760418_a_at) / RFU FAM167A (11723789_a_at) / Fold change /veh FAM167A (11723789_a_at) / RFU FAM26E (11764081_at) / Fold change /veh FAM26E (11764081_at) / RFU ISYNA1 (11749810_s_at) / Fold change /veh ISYNA1 (11749810_s_at) / RFU ACY1 (11761880_at) / Fold change /veh ACY1 (11761880_at) / RFU 11764098_at / Fold change /veh 11764098_at / RFU SAMD14 (11745864_x_at) / Fold change /veh SAMD14 (11745864_x_at) / RFU NPB (11741838_a_at) / Fold change /veh NPB (11741838_a_at) / RFU TMPRSS6 (11731388_a_at) / Fold change /veh TMPRSS6 (11731388_a_at) / RFU KRTAP10-2 (11738614_at) / Fold change /veh KRTAP10-2 (11738614_at) / RFU ARHGAP8 /// PRR5-ARHGAP8 (11727945_x_at) / Fold change /veh ARHGAP8 /// PRR5-ARHGAP8 (11727945_x_at) / RFU KRTAP5-7 /// NADSYN1 (11734609_at) / Fold change /veh KRTAP5-7 /// NADSYN1 (11734609_at) / RFU RASL12 (11751679_a_at) / Fold change /veh RASL12 (11751679_a_at) / RFU CDKN2B (11736163_a_at) / Fold change /veh CDKN2B (11736163_a_at) / RFU PRF1 (11729649_at) / Fold change /veh PRF1 (11729649_at) / RFU, ZNF638 /// ZNF638-IT1 / Fold change vs veh, ZNF638 /// ZNF638-IT1 / RFU, PANK3 / Fold change vs veh, PANK3 / RFU, SH3YL1 / Fold change vs veh, SH3YL1 / RFU, ZEB2 / Fold change vs veh, ZEB2 / RFU, NRIP1 / Fold change vs veh, NRIP1 / RFU, PTTG1IP / Fold change vs veh, PTTG1IP / RFU, CAPN2 / Fold change vs veh, CAPN2 / RFU, MED14 / Fold change vs veh, MED14 / RFU, SNORA58 / Fold change vs veh, SNORA58 / RFU, C1orf63 / Fold change vs veh, C1orf63 / RFU, LRRFIP1 / Fold change vs veh, LRRFIP1 / RFU, NDUFAF7 / Fold change vs veh, NDUFAF7 / RFU, SLC12A2 / Fold change vs veh, SLC12A2 / RFU, IBTK / Fold change vs veh, IBTK / RFU, ESF1 / Fold change vs veh, ESF1 / Fold change vs veh, TMEM50B / RFU, TAOK1 / Fold change vs veh, TAOK1 / RFU, ACBD3 / Fold change vs veh, ACBD3 / RFU, TMA16 / Fold change vs veh, TMA16 / RFU, RWDD3 / Fold change vs veh, RWDD3 / RFU, BCAT1 / Fold change vs veh, BCAT1 / RFU, EDEM3 / Fold change vs veh, EDEM3 / RFU, TMEM33 / Fold change vs veh, TMEM33 / RFU, WDR75 / Fold change vs veh, WDR75 / RFU, AHCTF1 / Fold change vs veh, AHCTF1 / RFU, TFRC / Fold change vs veh, TFRC / RFU, ZDHHC17 / Fold change vs veh, ZDHHC17 / RFU, NOM1 / Fold change vs veh, NOM1 / RFU, ARL8B / Fold change vs veh, ARL8B / RFU, ZBTB11 / Fold change vs veh, ZBTB11 / RFU, TAMM41 / Fold change vs veh, TAMM41 / RFU, KIAA1704 /// LOC100996395 / Fold change vs veh, KIAA1704 /// LOC100996395 / RFU, ING1 / Fold change vs veh, ING1 / RFU, TRMT61B / Fold change vs veh, TRMT61B / RFU, FUBP3 / Fold change vs veh, FUBP3 / RFU, TP53 / Fold change vs veh, TP53 / RFU, TNKS2 / Fold change vs veh, TNKS2 / RFU, ZFP14 / Fold change vs veh, ZFP14 / RFU, ACTR2 / Fold change vs veh, ACTR2 / RFU, PPP3R1 / Fold change vs veh, PPP3R1 / RFU, PIK3R1 / Fold change vs veh, PIK3R1 / RFU, HNRNPA1 / Fold change vs veh, HNRNPA1 / RFU, RNF170 / Fold change vs veh, RNF170 / RFU, ZNF28 / Fold change vs veh, ZNF28 / RFU, RNGTT / Fold change vs veh, RNGTT / RFU, OGT / Fold change vs veh, OGT / RFU, BRD1 / Fold change vs veh, BRD1 / RFU, MARS / Fold change vs veh, MARS / RFU, ZNF655 / Fold change vs veh, ZNF655 / RFU, FAHD1 / Fold change vs veh, FAHD1 / RFU, BDP1 / Fold change vs veh, BDP1 / RFU, LRRCC1 / Fold change vs veh, LRRCC1 / RFU, ARID1A / Fold change vs veh, ARID1A / RFU, ZNF146 / Fold change vs veh, ZNF146 / RFU, ZNF330 / Fold change vs veh, ZNF330 / RFU, GPN3 / Fold change vs veh, GPN3 / RFU, C9orf123 / Fold change vs veh, C9orf123 / RFU, N4BP2L2 / Fold change vs veh, N4BP2L2 / RFU, ARFIP1 / Fold change vs veh, ARFIP1 / RFU, FAM179B / Fold change vs veh, FAM179B / RFU, BCL10 / Fold change vs veh, BCL10 / RFU, UHRF1BP1L / Fold change vs veh, UHRF1BP1L / RFU, BET1 / Fold change vs veh, BET1 / RFU, CNOT2 / Fold change vs veh, CNOT2 / RFU, ZNF268 / Fold change vs veh, ZNF268 / Fold change vs veh, ZNF507 / RFU, DGCR2 / Fold change vs veh, DGCR2 / RFU, WDSUB1 / Fold change vs veh, WDSUB1 / Fold change vs veh, HSP90B1 /// MIR3652 / RFU, ADSS / Fold change vs veh, ADSS / RFU, GK / Fold change vs veh, GK / RFU, ZNF148 / Fold change vs veh, ZNF148 / RFU, TAF9 / Fold change vs veh, TAF9 / RFU, SLC1A5 / Fold change vs veh, SLC1A5 / RFU, SLMO2 / Fold change vs veh, SLMO2 / RFU, ABCC4 / Fold change vs veh, ABCC4 / RFU, LOC101060439 /// RAP1B / Fold change vs veh, LOC101060439 /// RAP1B / RFU, RFX7 / Fold change vs veh, RFX7 / RFU, GTPBP10 / Fold change vs veh, GTPBP10 / RFU, CNEP1R1 / Fold change vs veh, CNEP1R1 / RFU, BIVM-ERCC5 /// ERCC5 / Fold change vs veh, BIVM-ERCC5 /// ERCC5 / RFU, ILF3 / Fold change vs veh, ILF3 / RFU 11762660_at / Fold change /veh 11762660_at / RFU VCAN (11757783_s_at) / Fold change /veh VCAN (11757783_s_at) / RFU DDX43 (11728927_at) / Fold change /veh DDX43 (11728927_at) / RFU KRT8 (11758188_x_at) / Fold change /veh KRT8 (11758188_x_at) / RFU NKD1 (11759106_at) / Fold change /veh NKD1 (11759106_at) / RFU SRD5A1 (11742802_a_at) / Fold change /veh SRD5A1 (11742802_a_at) / RFU TPSAB1 /// TPSB2 (11721975_s_at) / Fold change /veh TPSAB1 /// TPSB2 (11721975_s_at) / RFU GSTM3 (11746129_a_at) / Fold change /veh GSTM3 (11746129_a_at) / RFU IL23R (11737362_x_at) / Fold change /veh IL23R (11737362_x_at) / RFU TMEM51 (11727254_a_at) / Fold change /veh TMEM51 (11727254_a_at) / RFU PIWIL2 (11732686_x_at) / Fold change /veh PIWIL2 (11732686_x_at) / RFU ORM1 (11744905_x_at) / Fold change /veh ORM1 (11744905_x_at) / RFU CCDC152 (11743942_at) / Fold change /veh CCDC152 (11743942_at) / RFU ECM1 (11717891_a_at) / Fold change /veh ECM1 (11717891_a_at) / RFU IL23R (11748794_a_at) / Fold change /veh IL23R (11748794_a_at) / RFU TNFAIP8L3 (11732012_x_at) / Fold change /veh TNFAIP8L3 (11732012_x_at) / RFU MBOAT4 (11741988_at) / Fold change /veh MBOAT4 (11741988_at) / RFU 11764193_at / Fold change /veh 11764193_at / RFU TMEM53 (11763286_at) / Fold change /veh TMEM53 (11763286_at) / RFU MAGEB2 (11727129_at) / Fold change /veh MAGEB2 (11727129_at) / RFU TMEM200A (11744735_a_at) / Fold change /veh TMEM200A (11744735_a_at) / RFU CCDC152 (11751479_a_at) / Fold change /veh CCDC152 (11751479_a_at) / RFU FAM211A (11726209_a_at) / Fold change /veh FAM211A (11726209_a_at) / RFU RGS16 (11746705_a_at) / Fold change /veh RGS16 (11746705_a_at) / RFU VCAN (11755009_s_at) / Fold change /veh VCAN (11755009_s_at) / RFU RHOB (11743442_s_at) / Fold change /veh RHOB (11743442_s_at) / RFU RGS16 (11720943_a_at) / Fold change /veh RGS16 (11720943_a_at) / RFU RGS16 (11720944_at) / Fold change /veh RGS16 (11720944_at) / RFU, VPS4B / Fold change vs veh, VPS4B / RFU, CREB1 / Fold change vs veh, CREB1 / RFU, DNAJC13 / Fold change vs veh, DNAJC13 / RFU, GNAQ / Fold change vs veh, GNAQ / RFU, CDK5R1 / Fold change vs veh, CDK5R1 / RFU, ZRANB3 / Fold change vs veh, ZRANB3 / RFU, CUL4A / Fold change vs veh, CUL4A / RFU, CCNY / Fold change vs veh, CCNY / RFU, UFL1 / Fold change vs veh, UFL1 / RFU, COG3 / Fold change vs veh, COG3 / RFU, DIAPH2 / Fold change vs veh, DIAPH2 / RFU, SKA2 / Fold change vs veh, SKA2 / RFU, AFF3 / Fold change vs veh, AFF3 / RFU, LMF1 / Fold change vs veh, LMF1 / RFU, IPO11 / Fold change vs veh, IPO11 / RFU, DFFB / Fold change vs veh, DFFB / RFU, FOXP1 / Fold change vs veh, FOXP1 / RFU, CARD8 / Fold change vs veh, CARD8 / RFU, STRN3 / Fold change vs veh, STRN3 / RFU, ADK / Fold change vs veh, ADK / RFU, RASSF2 / Fold change vs veh, RASSF2 / RFU, WIPF1 / Fold change vs veh, WIPF1 / RFU, LARP1B / Fold change vs veh, LARP1B / RFU, RASA1 / Fold change vs veh, RASA1 / RFU, RB1 / Fold change vs veh, RB1 / RFU, PPFIA1 / Fold change vs veh, PPFIA1 / RFU, MAT2A / Fold change vs veh, MAT2A / RFU, CCT5 / Fold change vs veh, CCT5 / RFU, WDR92 / Fold change vs veh, WDR92 / RFU, CUX1 / Fold change vs veh, CUX1 / RFU, TTC7A / Fold change vs veh, TTC7A / RFU, TMEM135 / Fold change vs veh, TMEM135 / RFU, DEPTOR / Fold change vs veh, DEPTOR / RFU, CPM / Fold change vs veh, CPM / RFU, DNAJB6 / Fold change vs veh, DNAJB6 / RFU, CACNA2D3 / Fold change vs veh, CACNA2D3 / RFU, DTX4 / Fold change vs veh, DTX4 / RFU, TFCP2 / Fold change vs veh, TFCP2 / RFU, GMCL1 /// GMCL1P1 / Fold change vs veh, GMCL1 /// GMCL1P1 / RFU, AEBP2 / Fold change vs veh, AEBP2 / RFU, SNHG1 /// SNORD22 /// SNORD25 /// SNORD26 /// SNORD27 /// SNORD28 /// SNORD29 /// SNORD31 / Fold change vs veh, SNHG1 /// SNORD22 /// SNORD25 /// SNORD26 /// SNORD27 /// SNORD28 /// SNORD29 /// SNORD31 / Fold change (Aza/veh), C12orf56 (ProbeSet 11735607_a_at) / Fold change (ACY-1035/veh), C12orf56 (ProbeSet 11735607_a_at) / Fold change (Aza/veh), FGFR1OP (ProbeSet 11751329_s_at) / Fold change (ACY-1035/veh), FGFR1OP (ProbeSet 11751329_s_at) / Fold change (Aza/veh), VPS36 (ProbeSet 11739960_a_at) / Fold change (ACY-1035/veh), VPS36 (ProbeSet 11739960_a_at) / RFU SYPL1 (11715823_x_at) / Fold change /veh SYPL1 (11715823_x_at) / RFU IGFBP7 (11715501_s_at) / Fold change /veh IGFBP7 (11715501_s_at) / RFU REEP3 (11722064_at) / Fold change /veh REEP3 (11722064_at) / RFU IGLL1 (11728026_x_at) / Fold change /veh IGLL1 (11728026_x_at): dose or concentration left out as unconfirmed
Conditions: ProbeSet 11725902_s_at; LIST D

## Nc1ncn([C@@H]2O[C@H](CO)[C@@H](O)[C@H]2O)c(=O)n1 [azacitidine]
  RFU, TMEM135: 62.37 RFU
